Results taken from ChEMBL document CHEMBL1136606, “Design and synthesis of bicyclic pyrimidinone-based HCV NS3 protease inhibitors” (Bioorg Med Chem Lett, 2003).

biological target: NS3 (Hepatitis C virus, UniProt A3EZJ3); assay: Inhibitory activity hepatitis C virus NS3 protease.; set-up: species or system Hepacivirus hominis
Sequence (A3EZJ3 whole entry): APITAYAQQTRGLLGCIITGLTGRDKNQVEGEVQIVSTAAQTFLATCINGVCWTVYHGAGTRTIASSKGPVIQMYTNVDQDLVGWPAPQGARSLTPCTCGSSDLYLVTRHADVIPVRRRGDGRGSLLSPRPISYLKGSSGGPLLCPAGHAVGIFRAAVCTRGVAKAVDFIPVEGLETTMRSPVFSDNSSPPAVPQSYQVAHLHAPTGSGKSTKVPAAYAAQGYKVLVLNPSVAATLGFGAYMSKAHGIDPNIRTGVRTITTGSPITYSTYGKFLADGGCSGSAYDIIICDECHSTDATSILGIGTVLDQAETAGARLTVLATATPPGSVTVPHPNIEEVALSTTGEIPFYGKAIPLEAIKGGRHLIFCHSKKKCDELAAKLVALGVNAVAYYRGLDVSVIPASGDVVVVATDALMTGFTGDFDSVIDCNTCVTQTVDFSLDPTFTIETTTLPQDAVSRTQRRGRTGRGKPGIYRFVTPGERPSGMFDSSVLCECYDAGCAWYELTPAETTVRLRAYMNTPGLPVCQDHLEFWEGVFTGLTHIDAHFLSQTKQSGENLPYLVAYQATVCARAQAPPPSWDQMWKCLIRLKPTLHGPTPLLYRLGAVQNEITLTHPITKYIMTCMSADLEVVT

IC50 [nM] | Compound
1770 | CC[C@H](NC(=O)[C@@H]1C[C@@](C)(NC(=O)Nc2cccc(C(=O)OC)c2)c2ncc(NCc3cccc(C(F)(F)F)c3)c(=O)n21)B1OC2C3CC(C[C@]2(C)O1)C3(C)C (some centres not stated)
370 | CC[C@H](NC(=O)[C@@H]1C[C@@](C)(NC(=O)Nc2ccccc2Cl)c2ncc(NCc3cccc(C(F)(F)F)c3)c(=O)n21)B1OC2C3CC(C[C@]2(C)O1)C3(C)C (some centres not stated)
2400 | CC[C@H](NC(=O)[C@@H]1C[C@@](C)(NC(=O)Cc2ccccc2)c2ncc(NCc3cccc(C(F)(F)F)c3)c(=O)n21)B1OC2C3CC(C[C@]2(C)O1)C3(C)C (some centres not stated)
440 | CC[C@H](NC(=O)[C@@H]1C[C@@](C)(CC(=O)Nc2nccc3ccccc23)c2ncc(NCc3cccc(C(F)(F)F)c3)c(=O)n21)B1OC2C3CC(C[C@]2(C)O1)C3(C)C (some centres not stated)
1400 | CC[C@H](NC(=O)[C@@H]1C[C@@](C)(NC(=O)Oc2ccccc2)c2ncc(NCc3cccc(C(F)(F)F)c3)c(=O)n21)B1OC2C3CC(C[C@]2(C)O1)C3(C)C (some centres not stated)
150 | CC[C@H](NC(=O)[C@@H]1C[C@@](C)(CC(=O)Nc2ccccc2C(N)=O)c2ncc(NCc3cccc(C(F)(F)F)c3)c(=O)n21)B1OC2C3CC(C[C@]2(C)O1)C3(C)C (some centres not stated)
100 | CCOC(=O)c1ccccc1NC(=O)N[C@]1(C)C[C@@H](C(=O)N[C@@H](CC)B2OC3C4CC(C[C@]3(C)O2)C4(C)C)n2c1ncc(NCc1cccc(C(F)(F)F)c1)c2=O (some centres not stated)
7000 | CC[C@H](NC(=O)[C@@H]1CCc2ncc(NCc3cccc(C(F)(F)F)c3)c(=O)n21)B1OC2C3CC(C[C@]2(C)O1)C3(C)C (some centres not stated)
270 | CC[C@H](NC(=O)[C@@H]1C[C@@](C)(NC(=O)Nc2cccc3ccccc23)c2ncc(NCc3cccc(C(F)(F)F)c3)c(=O)n21)B1OC2C3CC(C[C@]2(C)O1)C3(C)C (some centres not stated)
1100 | CC[C@H](NC(=O)[C@@H]1C[C@@](C)(NC(=O)Nc2ccc(Cl)cc2)c2ncc(NCc3cccc(C(F)(F)F)c3)c(=O)n21)B1OC2C3CC(C[C@]2(C)O1)C3(C)C (some centres not stated)
170 | CC[C@H](NC(=O)[C@@H]1C[C@@](C)(CC(=O)Nc2cccc3ccccc23)c2ncc(NCc3cccc(C(F)(F)F)c3)c(=O)n21)B1OC2C3CC(C[C@]2(C)O1)C3(C)C (some centres not stated)
2530 | CC[C@H](NC(=O)[C@@H]1C[C@@](C)(CC(=O)Nc2ccccc2[N+](=O)[O-])c2ncc(NCc3cccc(C(F)(F)F)c3)c(=O)n21)B1OC2C3CC(C[C@]2(C)O1)C3(C)C (some centres not stated)
1550 | CCOC(=O)c1cccc(NC(=O)N[C@]2(C)C[C@@H](C(=O)N[C@@H](CC)B3OC4C5CC(C[C@]4(C)O3)C5(C)C)n3c2ncc(NCc2cccc(C(F)(F)F)c2)c3=O)c1 (some centres not stated)
300 | CC[C@H](NC(=O)[C@@H]1C[C@@](C)(NC(=O)Nc2ccccc2Oc2ccccc2)c2ncc(NCc3cccc(C(F)(F)F)c3)c(=O)n21)B1OC2C3CC(C[C@]2(C)O1)C3(C)C (some centres not stated)
170 | CC[C@H](NC(=O)[C@@H]1C[C@@](C)(CC(=O)Nc2ccccc2)c2ncc(NCc3cccc(C(F)(F)F)c3)c(=O)n21)B1OC2C3CC(C[C@]2(C)O1)C3(C)C (some centres not stated)
180 | CC[C@H](NC(=O)[C@@H]1C[C@@](C)(CC(=O)Nc2ccccc2C(=O)NC)c2ncc(NCc3cccc(C(F)(F)F)c3)c(=O)n21)B1OC2C3CC(C[C@]2(C)O1)C3(C)C (some centres not stated)
30000 | CC[C@H](NC(=O)[C@@H]1C[C@@](C)(NC(=O)Nc2ccccc2-c2ccccc2)c2ncc(NCc3cccc(C(F)(F)F)c3)c(=O)n21)B1OC2C3CC(C[C@]2(C)O1)C3(C)C (some centres not stated)
1460 | CC[C@H](NC(=O)[C@@H]1C[C@@](C)(CC(=O)Nc2ccccc2C(=O)N(C)C)c2ncc(NCc3cccc(C(F)(F)F)c3)c(=O)n21)B1OC2C3CC(C[C@]2(C)O1)C3(C)C (some centres not stated)
3400 | CC[C@H](NC(=O)[C@@H]1C[C@@](C)(NC(=O)c2ccccc2)c2ncc(NCc3cccc(C(F)(F)F)c3)c(=O)n21)B1OC2C3CC(C[C@]2(C)O1)C3(C)C (some centres not stated)

IC50 [nM] | Compound
1030 | CC[C@H](NC(=O)[C@@H]1C[C@@](C)(NC(=O)Nc2ccc(F)cc2)c2ncc(NCc3cccc(C(F)(F)F)c3)c(=O)n21)B1OC2C3CC(C[C@]2(C)O1)C3(C)C (some centres not stated)
100 | CC[C@H](NC(=O)[C@@H]1C[C@@](C)(CC(=O)Nc2ccccc2C(=O)OC)c2ncc(NCc3cccc(C(F)(F)F)c3)c(=O)n21)B1OC2C3CC(C[C@]2(C)O1)C3(C)C (some centres not stated)
710 | CC[C@H](NC(=O)[C@@H]1C[C@@](C)(NC(=O)Nc2ccccc2SC)c2ncc(NCc3cccc(C(F)(F)F)c3)c(=O)n21)B1OC2C3CC(C[C@]2(C)O1)C3(C)C (some centres not stated)
790 | CC[C@H](NC(=O)[C@@H]1C[C@@](C)(NC(=O)Nc2ccccc2)c2ncc(NCc3cccc(C(F)(F)F)c3)c(=O)n21)B1OC2C3CC(C[C@]2(C)O1)C3(C)C (some centres not stated)
780 | CC[C@H](NC(=O)[C@@H]1C[C@@](C)(NC(=O)Nc2ccccc2C)c2ncc(NCc3cccc(C(F)(F)F)c3)c(=O)n21)B1OC2C3CC(C[C@]2(C)O1)C3(C)C (some centres not stated)
80 | CC[C@H](NC(=O)[C@@H]1C[C@@](C)(NC(=O)Nc2ccccc2C(=O)OC)c2ncc(NCc3cccc(C(F)(F)F)c3)c(=O)n21)B1OC2C3CC(C[C@]2(C)O1)C3(C)C (some centres not stated)
500 | CC[C@H](NC(=O)[C@@H]1C[C@@](C)(NC(=O)Nc2cccc(F)c2)c2ncc(NCc3cccc(C(F)(F)F)c3)c(=O)n21)B1OC2C3CC(C[C@]2(C)O1)C3(C)C (some centres not stated)
360 | CC[C@H](NC(=O)[C@@H]1C[C@@](C)(NC(=O)Nc2ccccc2OC)c2ncc(NCc3cccc(C(F)(F)F)c3)c(=O)n21)B1OC2C3CC(C[C@]2(C)O1)C3(C)C (some centres not stated)
1200 | CC[C@H](NC(=O)[C@@H]1C[C@@](C)(NC(=O)NCc2ccccc2)c2ncc(NCc3cccc(C(F)(F)F)c3)c(=O)n21)B1OC2C3CC(C[C@]2(C)O1)C3(C)C (some centres not stated)
1100 | CCOC(=O)c1ccc(NC(=O)N[C@]2(C)C[C@@H](C(=O)N[C@@H](CC)B3OC4C5CC(C[C@]4(C)O3)C5(C)C)n3c2ncc(NCc2cccc(C(F)(F)F)c2)c3=O)cc1 (some centres not stated)
200 | CC[C@H](NC(=O)[C@@H]1C[C@@](C)(CC(=O)Nc2ccccc2OC)c2ncc(NCc3cccc(C(F)(F)F)c3)c(=O)n21)B1OC2C3CC(C[C@]2(C)O1)C3(C)C (some centres not stated)
90 | CC[C@H](NC(=O)[C@@H]1C[C@@](C)(CC(=O)Nc2cccc(SC)c2)c2ncc(NCc3cccc(C(F)(F)F)c3)c(=O)n21)B1OC2C3CC(C[C@]2(C)O1)C3(C)C (some centres not stated)
160 | CCOc1ccccc1NC(=O)N[C@]1(C)C[C@@H](C(=O)N[C@@H](CC)B2OC3C4CC(C[C@]3(C)O2)C4(C)C)n2c1ncc(NCc1cccc(C(F)(F)F)c1)c2=O (some centres not stated)
130 | CC[C@H](NC(=O)[C@@H]1C[C@@](C)(NC(=O)Nc2cccc(SC)c2)c2ncc(NCc3cccc(C(F)(F)F)c3)c(=O)n21)B1OC2C3CC(C[C@]2(C)O1)C3(C)C (some centres not stated)
6400 | CC[C@H](NC(=O)[C@@H]1C[C@@](C)(NC(=O)Nc2ccccc2C(=O)O)c2ncc(NCc3cccc(C(F)(F)F)c3)c(=O)n21)B1OC2C3CC(C[C@]2(C)O1)C3(C)C (some centres not stated)
180 | CC[C@H](NC(=O)[C@@H]1C[C@@](C)(NC(=O)Nc2ccccc2[N+](=O)[O-])c2ncc(NCc3cccc(C(F)(F)F)c3)c(=O)n21)B1OC2C3CC(C[C@]2(C)O1)C3(C)C (some centres not stated)
4740 | CC[C@H](NC(=O)[C@@H]1C[C@@](C)(NC(=O)Nc2ccc(Oc3ccccc3)cc2)c2ncc(NCc3cccc(C(F)(F)F)c3)c(=O)n21)B1OC2C3CC(C[C@]2(C)O1)C3(C)C (some centres not stated)
2360 | CC[C@H](NC(=O)[C@@H]1C[C@@](C)(NC(=O)Nc2ccc(SC)cc2)c2ncc(NCc3cccc(C(F)(F)F)c3)c(=O)n21)B1OC2C3CC(C[C@]2(C)O1)C3(C)C (some centres not stated)
